Assay results as given in patent US20250295619A1, “Use of Salvianolic Acid E in the Preparation of Drugs Targeting Senescent Cells, Inhibiting Tumors or Extending Lifespan” (Shanghai Institute of Nutrition and Health, Chinese Academy …, priority 2024, published 2025).
Entries after “also recorded” stand apart in the source; their conditions may differ.

What was measured:
SASP factors = test: RNA-seq and GSEA expression profile of BLEO-induced senescent PSC27 cells; format: cell-based, human
Procedure: To cause cell damage, 50 μg/mL bleomycin (bleomycin, BLEO) was added to the culture medium when PSC27 cells grew to 80% (abbreviated as PSC27-CTRL). After 12 hours of drug treatment, the cells were simply washed 3 times with PBS, left in the culture medium for 7-10 days, and then the subsequent experiments were performed.
Whole-transcriptome sequencing was performed on the primary human prostate stromal cell line PSC27 under different treatment conditions. Total RNA samples were obtained from stromal cells. Their integrity was verified by Bioanalyzer 2100 (Agilent), RNA was sequenced by Illumina HiSeq X10, and gene expression levels were quantified by software package rsem (https://deweylab. github.io/rsem/). Briefly, rRNA was depleted from RNA samples with the RiboMinus Eukaryote Kit (Qiagen, Valencia, CA, USA); and according to the manufacturer's instructions, TruSeq Stranded Total RNA Preparation Kits (Illumina, San Diego, CA, USA) was used to construct a strand-specific RNA-seq library before deep sequencing.
Paired-end transcriptomic reads were mapped to a reference genome (GRCh38/hg38), and reference-annotation was performed from Gencode v27 using the Bowtie tool. Duplicate reads were identified using the picard Tools (1.98) script to mark duplicates (https://github. com/broadinstitute/picard), and only non-duplicate reads were retained. Reference splice junctions were provided by reference transcriptome (Ensembl Build 73). FPKM values were calculated with Cufflinks, and Cufflinks maximum likelihood estimation function was used to call differential gene expression. […]
Based on the data obtained from the preliminary analysis of RNA-seq, after analyzing and comparing each differentially expressed significant gene, the genes were sorted using the “wald statistics” obtained from DESeq2. […] DESeq2 independent filtering was based on the average of normalized read counts to select genes with very low expression levels. […]

PSC27 [1] = test: Population doubling (PD) test of PSC27; format: cell-based, human
Procedure: The cells were damaged by BLEO at passage 10 (p10), and then SAE was added to the medium at day 8. The effect SAE on cell proliferation potential is determined by comparative analysis of the population doubling (PD) of CTRL group, BLEO group, SAE group and BLEO/SAE group. ^, P>0.05; ***P<0.001.

PSC27 [2] = test: Caspase 3/7 apoptosis detection in senescent PSC27 cells (IncuCyte); format: cell-based, human; conditions: 200 μM SAE
Procedure: PSC27 cells gradually entered the senescent stage after being treated with BLEO for 12 hours under culture conditions. 200 μM SAE was added to the medium of senescent cells starting from day 7, NucLight Rapid Red reagent was used to label the cells and caspase 3/7 reagent (IncuCyte) was used for apoptosis detection. Caspase 3/7 activity was detected every 4 hours (n=3).
Statistical differences are obtained by two-way ANOVA (Turkey'test).
PSC27 cells were plated in a 96-well dish, and the cells were induced to senescence under 50 μg/ml of BLEO treatment. SAE and ABT263 were added at concentrations of 200 μM and 1.25 μM, respectively. Cell culture medium was supplemented with Incucyte Nuclight fast Red Reagent (Essen Bioscience) and Incucyte C-3/7 Apoptosis Reagent (Essen Bioscience). Representative field of view was selected to take pictures.

[3] = system: senescent cells in tumor tissue; test: SA-β-Gal staining of tumor tissues of PC3/PSC27 tumor-bearing mice; format: in vivo, mouse; conditions: SAE with MIT
Procedure: Representative pictures after SA-β-Gal staining. Scale bar, 100 μm.
In a preclinical treatment trial, subcutaneously transplanted mice were fed with a standard experimental diet, after 2 weeks chemotherapy drugs mitoxantrone (MIT, dose: 0.2 mg/kg) and/or SAE (500 μl, dose: 10 mg/kg) via intraperitoneal administration. The time points were: the former was administrated on the first day of the 3rd, 5th and 7th weeks, and the latter was administrated on the first day of the 5th and 7th weeks. A total of 3 cycles of MIT administration were carried out throughout the course of treatment, and each cycle lasted for 2 weeks. After the course of treatment, mouse tumors were harvested for volume measurement and histological analysis. Each mouse cumulatively received 0.6 mg/kg body weight of MIT and 30 mg/kg body weight of SAE. In order to cause systemic expression of SASP factors induced by chemotherapy, MIT was administered to mice through intravenous infusion according to the above steps and sequence, but the dose was reduced to 0.1 mg/kg body weight/each time (the cumulative dose of MIT received in the whole course of treatment was 0.3 mg/kg body weight) to reduce drug-related toxicity. The chemotherapy experiment ended at the end of the 8th week, and the mice were dissected immediately after sacrifice, and the xenograft tumors were collected and used for pathological system analysis.

PC3/PSC27 tumors = test: DNA damage and apoptosis in tumors of treated mice; format: in vivo, mouse
Description: To investigate mechanisms directly supporting this senescence-associated pattern with expression and reversal of SASP in MIT-administered mice, the inventors dissected tumors in animals treated with both drugs 7 days after the first SAE administration, and the time point of 7 days after administration was selected mainly because drug-resistant clones had not yet formed in cancer cells in the lesion at this time. […] As supporting evidence, when SAE was applied during treatment, caspase 3 cleavage activity was increased, which was a typical hallmark of apoptosis (FIG. 29).

O=C(/C=C/c1ccc(O)c(O)c1/C(=C\c1ccc(O)c(O)c1)C(=O)O[C@H](Cc1ccc(O)c(O)c1)C(=O)O)O[C@H](Cc1ccc(O)c(O)c1)C(=O)O [SAE, salvianolic acid E]
expression of SASP factors in senescent cells after SAE treatment (SASP factors; BLEO-induced senescent PSC27): universally reduced; also recorded: generally decreased
molecular signatures characterizing SASP expression or NF-κB activation (GSEA) (SASP factors; BLEO-induced senescent PSC27 after SAE): significant repression
expression profile of senescent cells (SASP factors; RNA-seq, BLEO-induced senescent PSC27): significantly altered
PD in proliferating cells (PSC27 [1]; SAE alone): does not affect PD
population doubling (PD) ability of stromal cells after genotoxic treatment combined with SAE (PSC27 [1]; combination with genotoxic drug (BLEO) vs genotoxic drug alone): significant increase; also recorded: significantly increased
caspase-3/7 activity: apoptosis of senescent cells (PSC27 [2]): caused apoptosis of senescent cells
time after addition of SAE from which senescent and control group differ statistically (PSC27 [2]; caspase 3/7 activity): ≥ 16 h
senescent cells in the lesions of animals treated with chemotherapeutic drugs after SAE administration [3]: essentially depleted most senescent cells
indices of DNA damage or apoptosis (PC3/PSC27 tumors; MIT-treated animals administered with SAE): significantly enhanced
caspase 3 cleavage activity (PC3/PSC27 tumors; SAE applied during treatment): significantly increased
degree of DNA damage and apoptosis (PC3/PSC27 tumors; single agent compared with placebo, 7 days after first SAE administration): could not induce DNA damage or cause apoptosis
